System: dermal capillaries of normal human skin maintained alive
Test: Vascular modulation (vasodilation/vasoconstriction) in a model of normal human skin maintained alive; histological morphometry of dermal capillaries
Assay type: cell-based
Details: 1 μM noradrenalin in culture medium, 48 hours organ culture; for percentage of dilated vessels (dilated capillaries): mean of six skin samples, control skin 74.8 ± 20.8; for mean area occupied by the lumen of the blood vessels (capillaries) in the dermis: control skin 153.6 ± 74.4
From the text: The object of this study is to analyse the effect on vascular modulation, namely vasodilation or vasoconstriction, of the essential oil of Laserpitium siler L. evaluated in a model of normal human skin maintained alive.
The analyses are histological by morphometric quantification of the calibre of the dermal capillaries and semi-quantitative evaluation of the oedema.
Fragments of normal human skin are obtained from a plastic surgery. They are placed in inserts, which are themselves positioned on culture wells. Culture medium specifically adapted to survival maintenance is added to the bottom of the wells, a passage being made by slow diffusion between the two compartments via a porous membrane (3 μm).
The second positive control consisted in adding 1 μM noradrenalin to the culture medium so as to obtain vasoconstriction of the dermal capillaries.
The essential oil of Laserpitium siler L. at the test concentrations dissolved in ethanol is added to the culture medium.
The skin fragments are then maintained in organ culture for 48 hours in an oven under a humid atmosphere, at 37° C. and in the presence of 5% CO2.
The skin fragments are fixed in Bouin liquid and included in paraffin. After staining with haemalum-eosin, two criteria are evaluated on the dermis: the oedema and the calibre of the capillaries.
After staining with haemalum-eosin, the vascular dilation is evaluated by counting the number of dilated blood vessels on the entire histological slice (16 fields at magnification 40). This number is carried over to the total number of blood vessels in order to calculate the percentage of dilated vessels.
Moreover, a morphometric analysis of the area (μm^2) occupied by the lumen of the blood vessels was performed in order to determine the mean area (μm^2) occupied in the dermis by the vessels.
A mean is calculated for each parameter from the results obtained on the six skin samples. The statistical analysis was performed via the “reduced deviation” Student test or paired-samples test, with a risk a of 5%.

## NC[C@H](O)c1ccc(O)c(O)c1 [noradrenalin]
  percentage of dilated vessels (dilated capillaries): 52.5 ± 20.6%
  mean area occupied by the lumen of the blood vessels (capillaries) in the dermis: 93.7 ± 65.7 μm^2
Listed as Noradrenalin
  percentage of dilated vessels (dilated capillaries): 52.5%
  mean area occupied by the lumen of the blood vessels (capillaries) in the dermis: 93.7 μm^2

From patent US10085933B2, “Cosmetic use of an essential oil of Laserpitium siler L. for keratin materials” (L'OREAL, priority 2013, dated 2018)
